Measurements from publication PMC4764201, “High Throughput Screen for Escherichia coli Twin Arginine Translocation (Tat) Inhibitors” (PLoS ONE, 2016).
“Also recorded” adds a separate entry of the source.

These molecules were tested against E. coli Tat machinery (IMVs containing overproduced TatABC) (Escherichia coli, UniProt P69423+P69425+P69428) (assay: In vitro Tat transport assay of pre-SufI into IMVs, NADH as energy source). Details: 90 nM pre-SufI, NADH; with and without 2.5 mM DTT.
Type: biochemical
Experimental: To directly test for inhibition of Tat transport, a gel-based in vitro Tat transport assay was performed using pre-SufI, an authentic Tat precursor protein [7]. In short, this assay consists of incubating a Tat substrate and a Δψ-generating energy source with inverted membrane vesicles (IMVs) containing overproduced TatABC, digesting remaining external protein with a protease, and then analyzing via SDS-PAGE. This assay was run twice using NADH and ATP (if warranted) as energy sources to generate the necessary Δψ. NADH generates a Δψ using respiratory proteins (i.e., the NADH dehydrogenase and cytochrome bo3 ubiquinol oxidase complexes) and ATP generates a Δψ by reversal of ATP synthase. A true Tat inhibitor would survive both assays. In contrast, a respiration inhibitor is expected to reduce Tat transport when only one of the two energy sources is used (except for an ionophore).
Fig 8 Effect of Hits from the Local HTS on In Vitro Tat Transport. (A) Tat transport assays of pre-SufI using NADH to generate a Δψ. Inverted membrane vesicles (IMVs; A280 = 5.0), the fluorescent substrate pre-SufI-IAC^Atto565 (90 nM), and NADH (4 mM) were incubated at 37°C for 30 min with DMSO (control) or with hit compound (20 μM). Samples were treated with the protease proteinase K, run on SDS-PAGE, and analyzed by in-gel fluorescence imaging. Assays were run in duplicate. Band intensity corresponds to the amount of protein transported into the IMV lumen. The following 7 compounds survived this screen: 1^JS, 51^JS, 55^JS, 111^JS, 181^JS, 202^JS, and 140^JS (boxed in red). (B) Tat transport assays of pre-SufI using ATP to generate a Δψ. All 7 compounds surviving the screen in (A) were tested using a Tat transport assay performed identically to those in (A) except that ATP (1 mM) was used in place of NADH. Compound 55^JS was eliminated by this assay—the other 6 compounds survived (boxed in red). (C) Chemical structure of compound 55^JS, N-(4,7-Dioxo-4,7-dihydro-2,1,3-benzoxadiazol-5-yl)acetamide.
Isolation of inverted membrane vesicles (IMVs), Western blot analyses and purification of pre-SufI-IAC were performed as described previously. Western blots were performed using rabbit anti-mCherry antibodies (1:10,000 dilution) in the presence of 0.1% Triton X-100 and 0.1% Tween 20. The pre-SufI-IAC protein was labeled with Atto565 maleimide, and the resultant fluorescent protein, pre-SufI-IAC^Atto565, was used as a substrate for the in vitro Tat transport assays (A280 = 5.0), as described previously. The presence of a Δψ was determined by measuring oxonol VI fluorescence in presence of Tat^+ IMVs (A280 = 0.5), as described previously, except that the translocation buffer lacked BSA. Steady-state fluorescence spectra and fluorescence intensities of whole cells producing mCherry proteins were determined with an SLM-8100 spectrofluorometer.
Supplementary file pone.0149659.s003.tiff: S3 Fig IC50's for Hit Compound 181^JS. (A) The total cellular mCherry fluorescence (live cell assay; n = 1), (B) the in vitro NADH-dependent Tat transport efficiency of pre-SufI (n = 1), and (C) the maximum transmembrane electrical potential gradient (n = 1) were measured for a range of concentrations of compound 181^JS (S2E Fig). (D) SDS-PAGE gel showing in-gel fluorescence data used in (B). For (A), cells expressing spTorA-mCherry-SsrA were grown under Tat^++ conditions in a 384-well plate in the presence of 0, 0.08, 0.15, 0.3, 0.63, 1.25, 2.5, 5, 10, 20, or 40 μM compound 181^JS, as described for the HTS assay (see Methods). For (B) and (C), IMVs were incubated with the same concentrations of compound 181^JS prior to initiation of Tat transport and Δψ generation by the addition of NADH, as described previously. The red curves are best-fits using y = d + (100-d)/(1+(x/IC50)^b), where b is a slope factor and d is the high concentration asymptote. (TIFF) Click here for additional data file.

Sequence of E. coli Tat machinery (IMVs containing overproduced TatABC) (P69423 2-258): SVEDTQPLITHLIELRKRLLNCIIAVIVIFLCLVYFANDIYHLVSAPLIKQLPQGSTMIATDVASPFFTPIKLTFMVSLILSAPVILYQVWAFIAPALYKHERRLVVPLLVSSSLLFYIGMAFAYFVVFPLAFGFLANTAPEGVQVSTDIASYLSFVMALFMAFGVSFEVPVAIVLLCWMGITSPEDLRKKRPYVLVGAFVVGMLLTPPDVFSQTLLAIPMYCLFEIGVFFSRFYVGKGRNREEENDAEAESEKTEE
Sequence of E. coli Tat machinery (IMVs containing overproduced TatABC) (P69425 whole entry): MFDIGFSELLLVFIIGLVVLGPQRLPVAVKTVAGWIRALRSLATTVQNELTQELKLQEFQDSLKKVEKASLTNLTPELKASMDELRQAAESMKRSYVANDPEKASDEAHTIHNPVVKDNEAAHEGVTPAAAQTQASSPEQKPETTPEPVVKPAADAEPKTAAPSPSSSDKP
Sequence of E. coli Tat machinery (IMVs containing overproduced TatABC) (P69428 whole entry): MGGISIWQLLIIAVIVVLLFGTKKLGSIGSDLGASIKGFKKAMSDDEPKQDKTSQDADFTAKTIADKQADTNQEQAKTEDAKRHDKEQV

Question: For `Cc1ccc(S(=O)(=O)/C=C/C#N)cc1` [Bay 11–7082], which “effect on in vitro E. coli Tat transport” value is on record?
Answer: neither compound affected; also recorded: do not inhibit

Question: `O=C1C=CC(=O)N1c1ccccc1` [N-phenylmaleimide] was tested. Which “effect on in vitro E. coli Tat transport” value did it give?
Answer: neither compound affected; also recorded: do not inhibit

Same assay, conditions: efficiency of NADH-dependent in vitro Tat transport of pre-SufI; IMVs A280 = 5

Question: `N#CC1c2ccccc2-n2nncc2CN1Cc1cc(Cl)cc(Cl)c1` (stereo not shown) [21^NIH, 5-[(3,5-dichlorophenyl)methyl]-4,6-dihydrotriazolo[1,5-a][1, 4]benzodiazepine-6-carbonitrile] was tested. Which IC50 did it give?
Answer: 50 µM

Question: With `Fc1nc(F)c(F)c(NNC(=S)Nc2cccc(C(F)(F)F)c2)c1F` [Compound 111, 1-[(2,3,5,6-tetrafluoropyridin-4-yl)amino]-3-[(3-trifluoromethyl)phenyl]thiourea] as the molecule, how does the IC50 read?
Answer: 0.7 µM

Same assay, conditions: hit compound 20 μM; NADH 4 mM; 37°C 30 min

Question: Which “outcome of NADH-dependent in vitro Tat transport screen (survival = visible inhibition of Tat transport)” value does the source give for `N#CC(C#N)=NNc1ccccc1Br` [Compound 1, [(2-bromophenyl)hydrazono]malononitrile] here?
Answer: survived

Question: With `O=[N+]([O-])c1cc([N+](=O)[O-])c2ccccc2c1Cl` [Compound 51, 1-chloro-2,4-dinitronaphthalene] as the molecule, how does the “outcome of NADH-dependent in vitro Tat transport screen (survival = visible inhibition of Tat transport)” value read?
Answer: survived

Question: With `Fc1nc(F)c(F)c(NNC(=S)Nc2cccc(C(F)(F)F)c2)c1F` [Compound 111, 1-[(2,3,5,6-tetrafluoropyridin-4-yl)amino]-3-[(3-trifluoromethyl)phenyl]thiourea] as the molecule, how does the “outcome of NADH-dependent in vitro Tat transport screen (survival = visible inhibition of Tat transport)” value read?
Answer: survived

Question: For `FC(F)(F)c1cccc(-c2cccc3cnccc23)c1` [Compound 140, 5-[3-(trifluoromethyl)phenyl]isoquinoline], which “outcome of NADH-dependent in vitro Tat transport screen (survival = visible inhibition of Tat transport)” value is on record?
Answer: survived

Question: How did the “outcome of NADH-dependent in vitro Tat transport screen (survival = visible inhibition of Tat transport)” value turn out when `O=C(Nc1cccc(C(F)(F)F)c1)Nc1ncc([N+](=O)[O-])s1` [Compound 181^JS, 1-(5-nitro-1,3-thiazol-2-yl)-3-[3-(trifluoromethyl)phenyl]urea] was run?
Answer: survived

Question: How did the “outcome of NADH-dependent in vitro Tat transport screen (survival = visible inhibition of Tat transport)” value turn out when `O=[N+]([O-])c1ccc(O)c(-c2cccs2)c1` [Compound 202, 4-nitro-2-thiophen-2-ylphenol] was run?
Answer: survived
